Source: ChEMBL document CHEMBL5724806, “Unraveling interindividual differences and functional consequences of gut microbial metabolism of immunosuppressants” (2024)

How the values were obtained:
Type in all cases: ADME
[1] = (§1) The drug is tested on Bifidobacterium adolescentis strain: DSM20083 for biotransformation under anaerobic condition. The drug concentrations were measured over 6 timepoints collected between 0 and 12 hours of incubation by liquid-chromatography-coupled mass spectrometry (LC–MS); set-up: dose 5 uM, timepoint 0, 1.5, 3, 6, 9, 12 hours; settings: 5 µM
[2] = The drug is tested on Bifidobacterium longum strain: DSM20088 for biotransformation under anaerobic condition. The drug concentrations were measured over 6 timepoints collected between 0 and 12 hours of incubation by liquid-chromatography-coupled mass spectrometry (LC–MS); set-up: dose 5 uM, timepoint 0, 1.5, 3, 6, 9, 12 hours; settings: 5 µM
[3] = The drug is tested on Bacteroides fragilis strain: DSM2151 for biotransformation under anaerobic condition. The drug concentrations were measured over 6 timepoints collected between 0 and 12 hours of incubation by liquid-chromatography-coupled mass spectrometry (LC–MS); set-up: dose 5 uM, timepoint 0, 1.5, 3, 6, 9, 12 hours; settings: 5 µM
[4] = The drug is tested on Bacteroides stercoris strain: HM 1036 for biotransformation under anaerobic condition. The drug concentrations were measured over 6 timepoints collected between 0 and 12 hours of incubation by liquid-chromatography-coupled mass spectrometry (LC–MS); set-up: dose 5 uM, timepoint 0, 1.5, 3, 6, 9, 12 hours; settings: 5 µM
[5] = The drug is tested on Prevotella copri strain: DSM18205 for biotransformation under anaerobic condition. The drug concentrations were measured over 6 timepoints collected between 0 and 12 hours of incubation by liquid-chromatography-coupled mass spectrometry (LC–MS); set-up: dose 5 uM, timepoint 0, 1.5, 3, 6, 9, 12 hours; settings: segatella copri, 5 µM
[6] = The drug is tested on Eubacterium eligens strain: DSM3376 for biotransformation under anaerobic condition. The drug concentrations were measured over 6 timepoints collected between 0 and 12 hours of incubation by liquid-chromatography-coupled mass spectrometry (LC–MS); set-up: dose 5 uM, timepoint 0, 1.5, 3, 6, 9, 12 hours; settings: lachnospira eligens, 5 µM
[7] = The drug is tested on Eubacterium rectale strain: DSM17629 for biotransformation under anaerobic condition. The drug concentrations were measured over 6 timepoints collected between 0 and 12 hours of incubation by liquid-chromatography-coupled mass spectrometry (LC–MS); set-up: dose 5 uM, timepoint 0, 1.5, 3, 6, 9, 12 hours; settings: agathobacter rectalis, 5 µM
[8] = The drug is tested on Ruminococcus gnavus strain: ATCC29149 for biotransformation under anaerobic condition. The drug concentrations were measured over 6 timepoints collected between 0 and 12 hours of incubation by liquid-chromatography-coupled mass spectrometry (LC–MS); set-up: dose 5 uM, timepoint 0, 1.5, 3, 6, 9, 12 hours; settings: mediterraneibacter gnavus, 5 µM
[9] = The drug is tested on Streptococcus salivarius strain: DSM20560 for biotransformation under anaerobic condition. The drug concentrations were measured over 6 timepoints collected between 0 and 12 hours of incubation by liquid-chromatography-coupled mass spectrometry (LC–MS); set-up: dose 5 uM, timepoint 0, 1.5, 3, 6, 9, 12 hours; settings: 5 µM
[10] = (§2) The drug is tested on Actinomyces naeslundi strain: DSM43013 for biotransformation under microaerobic condition. The drug concentrations were measured over 6 timepoints collected between 0 and 12 hours of incubation by liquid-chromatography-coupled mass spectrometry (LC–MS); set-up: dose 5 uM, timepoint 0, 1.5, 3, 6, 9, 12 hours; settings: actinomyces naeslundii, 5 µM
[11] = The drug is tested on Capnocytophaga ochracea strain: DSM7271 for biotransformation under microaerobic condition. The drug concentrations were measured over 6 timepoints collected between 0 and 12 hours of incubation by liquid-chromatography-coupled mass spectrometry (LC–MS); set-up: dose 5 uM, timepoint 0, 1.5, 3, 6, 9, 12 hours; settings: 5 µM
[12] = The drug is tested on Gemella haemolysans strain: DSM107751 for biotransformation under microaerobic condition. The drug concentrations were measured over 6 timepoints collected between 0 and 12 hours of incubation by liquid-chromatography-coupled mass spectrometry (LC–MS); set-up: dose 5 uM, timepoint 0, 1.5, 3, 6, 9, 12 hours; settings: 5 µM
[13] = The drug is tested on Lactobacillus paracasei strain: ATCC27092 for biotransformation under microaerobic condition. The drug concentrations were measured over 6 timepoints collected between 0 and 12 hours of incubation by liquid-chromatography-coupled mass spectrometry (LC–MS); set-up: dose 5 uM, timepoint 0, 1.5, 3, 6, 9, 12 hours; settings: lacticaseibacillus paracasei, 5 µM
[14] = The drug is tested on Streptococcus salivarius strain: DSM20560 for biotransformation under microaerobic condition. The drug concentrations were measured over 6 timepoints collected between 0 and 12 hours of incubation by liquid-chromatography-coupled mass spectrometry (LC–MS); set-up: dose 5 uM, timepoint 0, 1.5, 3, 6, 9, 12 hours; settings: 5 µM
[15] = as §1, with “the gut metagenome community of A-06 with ENA study accession number: PRJEB31790” for “Bifidobacterium adolescentis strain: DSM20083”, “7” for “6”; set-up: dose 5 uM, timepoint 0, 0.75, 1.5, 3, 6, 9, 12 hours; settings: 5 µM
[16] = as §1, with “the gut metagenome community of A-08 with ENA study accession number: PRJEB31790” for “Bifidobacterium adolescentis strain: DSM20083”, “7” for “6”; set-up: dose 5 uM, timepoint 0, 0.75, 1.5, 3, 6, 9, 12 hours; settings: 5 µM
[17] = as §1, with “the gut metagenome community of P-04 with ENA study accession number: PRJEB31790” for “Bifidobacterium adolescentis strain: DSM20083”, “7” for “6”; set-up: dose 5 uM, timepoint 0, 0.75, 1.5, 3, 6, 9, 12 hours; settings: 5 µM
[18] = as §1, with “the gut metagenome community of T-01 with ENA study accession number: PRJEB31790” for “Bifidobacterium adolescentis strain: DSM20083”, “7” for “6”; set-up: dose 5 uM, timepoint 0, 0.75, 1.5, 3, 6, 9, 12 hours; settings: 5 µM
[19] = as §1, with “the gut metagenome community of T-04 with ENA study accession number: PRJEB31790” for “Bifidobacterium adolescentis strain: DSM20083”, “7” for “6”; set-up: dose 5 uM, timepoint 0, 0.75, 1.5, 3, 6, 9, 12 hours; settings: 5 µM
[20] = as §1, with “the gut metagenome community of T-05 with ENA study accession number: PRJEB31790” for “Bifidobacterium adolescentis strain: DSM20083”, “7” for “6”; set-up: dose 5 uM, timepoint 0, 0.75, 1.5, 3, 6, 9, 12 hours; settings: 5 µM
[21] = as §2, with “the gut metagenome community of A-04 with ENA study accession number: PRJEB31790” for “Actinomyces naeslundi strain: DSM43013”, “7” for “6”; set-up: dose 5 uM, timepoint 0, 0.75, 1.5, 3, 6, 9, 12 hours; settings: 5 µM
[22] = as §2, with “the gut metagenome community of A-05 with ENA study accession number: PRJEB31790” for “Actinomyces naeslundi strain: DSM43013”, “7” for “6”; set-up: dose 5 uM, timepoint 0, 0.75, 1.5, 3, 6, 9, 12 hours; settings: 5 µM
[23] = as §2, with “the gut metagenome community of A-07 with ENA study accession number: PRJEB31790” for “Actinomyces naeslundi strain: DSM43013”, “7” for “6”; set-up: dose 5 uM, timepoint 0, 0.75, 1.5, 3, 6, 9, 12 hours; settings: 5 µM
[24] = as §2, with “the gut metagenome community of A-09 with ENA study accession number: PRJEB31790” for “Actinomyces naeslundi strain: DSM43013”, “7” for “6”; set-up: dose 5 uM, timepoint 0, 0.75, 1.5, 3, 6, 9, 12 hours; settings: 5 µM
[25] = as §2, with “the gut metagenome community of P-01 with ENA study accession number: PRJEB31790” for “Actinomyces naeslundi strain: DSM43013”, “7” for “6”; set-up: dose 5 uM, timepoint 0, 0.75, 1.5, 3, 6, 9, 12 hours; settings: 5 µM
[26] = as §2, with “the gut metagenome community of P-02 with ENA study accession number: PRJEB31790” for “Actinomyces naeslundi strain: DSM43013”, “7” for “6”; set-up: dose 5 uM, timepoint 0, 0.75, 1.5, 3, 6, 9, 12 hours; settings: 5 µM
[27] = as §2, with “the gut metagenome community of P-03 with ENA study accession number: PRJEB31790” for “Actinomyces naeslundi strain: DSM43013”, “7” for “6”; set-up: dose 5 uM, timepoint 0, 0.75, 1.5, 3, 6, 9, 12 hours; settings: 5 µM
[28] = as §2, with “the gut metagenome community of T-01 with ENA study accession number: PRJEB31790” for “Actinomyces naeslundi strain: DSM43013”, “7” for “6”; set-up: dose 5 uM, timepoint 0, 0.75, 1.5, 3, 6, 9, 12 hours; settings: 5 µM
[29] = as §2, with “the gut metagenome community of T-02 with ENA study accession number: PRJEB31790” for “Actinomyces naeslundi strain: DSM43013”, “7” for “6”; set-up: dose 5 uM, timepoint 0, 0.75, 1.5, 3, 6, 9, 12 hours; settings: 5 µM
[30] = as §2, with “the gut metagenome community of T-04 with ENA study accession number: PRJEB31790” for “Actinomyces naeslundi strain: DSM43013”, “7” for “6”; set-up: dose 5 uM, timepoint 0, 0.75, 1.5, 3, 6, 9, 12 hours; settings: 5 µM
[31] = as §2, with “the gut metagenome community of T-05 with ENA study accession number: PRJEB31790” for “Actinomyces naeslundi strain: DSM43013”, “7” for “6”; set-up: dose 5 uM, timepoint 0, 0.75, 1.5, 3, 6, 9, 12 hours; settings: 5 µM

Bacterial Biotransformation [1]	Bacterial Biotransformation [2]	Bacterial Biotransformation [3]	Bacterial Biotransformation [4]	Bacterial Biotransformation [5]	Bacterial Biotransformation [6]	Bacterial Biotransformation [7]	Bacterial Biotransformation [8]	Bacterial Biotransformation [9]	Bacterial Biotransformation [10]	Bacterial Biotransformation [11]	Bacterial Biotransformation [13]	Bacterial Biotransformation [14]	Bacterial Biotransformation [15]	Bacterial Biotransformation [16]	Bacterial Biotransformation [17]	Bacterial Biotransformation [18]	Bacterial Biotransformation [19]	Bacterial Biotransformation [20]	SMILES	Bacterial Biotransformation [12]	further results
Compound NOT metabolized	Compound NOT metabolized	Compound NOT metabolized	Compound NOT metabolized	Compound metabolized	Compound NOT metabolized	Compound NOT metabolized	Compound NOT metabolized	Compound NOT metabolized	Compound NOT metabolized	Compound NOT metabolized	Compound NOT metabolized	Compound NOT metabolized	Compound NOT metabolized	Compound NOT metabolized	Compound NOT metabolized	Compound NOT metabolized	Compound NOT metabolized	Compound NOT metabolized	CCC(C)(C)C(=O)O[C@H]1C[C@@H](C)C=C2C=C[C@H](C)[C@H](CC[C@@H]3C[C@@H](O)CC(=O)O3)[C@H]21 [SIMVASTATIN]	Compound NOT metabolized	Bacterial Biotransformation [21]: Compound NOT metabolized; Bacterial Biotransformation [22]: Compound NOT metabolized; Bacterial Biotransformation [23]: Compound NOT metabolized; Bacterial Biotransformation [24]: Compound NOT metabolized; Bacterial Biotransformation [25]: Compound NOT metabolized; Bacterial Biotransformation [26]: Compound NOT metabolized; Bacterial Biotransformation [27]: Compound NOT metabolized; Bacterial Biotransformation [28]: Compound NOT metabolized; Bacterial Biotransformation [29]: Compound NOT metabolized; Bacterial Biotransformation [30]: Compound NOT metabolized; Bacterial Biotransformation [31]: Compound NOT metabolized
Compound NOT metabolized	Compound metabolized	Compound NOT metabolized	Compound metabolized	Compound NOT metabolized	Compound metabolized	Compound NOT metabolized	Compound NOT metabolized	Compound metabolized	Compound NOT metabolized	Compound NOT metabolized	Compound NOT metabolized	Compound NOT metabolized	Compound metabolized	Compound metabolized	Compound metabolized	Compound NOT metabolized	Compound NOT metabolized	Compound NOT metabolized	CO[C@H]1C[C@@H]2CC[C@@H](C)[C@@](O)(O2)C(=O)C(=O)N2CCCC[C@H]2C(=O)O[C@H]([C@H](C)C[C@@H]2CC[C@@H](O)[C@H](OC)C2)CC(=O)[C@H](C)/C=C(\C)[C@@H](O)[C@@H](OC)C(=O)[C@H](C)C[C@H](C)/C=C/C=C/C=C/1C [SIROLIMUS]	Compound NOT metabolized	Bacterial Biotransformation [21]: Compound metabolized; Bacterial Biotransformation [22]: Compound metabolized; Bacterial Biotransformation [23]: Compound metabolized; Bacterial Biotransformation [24]: Compound metabolized; Bacterial Biotransformation [25]: Compound NOT metabolized; Bacterial Biotransformation [26]: Compound NOT metabolized; Bacterial Biotransformation [27]: Compound NOT metabolized; Bacterial Biotransformation [28]: Compound NOT metabolized; Bacterial Biotransformation [29]: Compound metabolized; Bacterial Biotransformation [30]: Compound NOT metabolized; Bacterial Biotransformation [31]: Compound NOT metabolized
Compound NOT metabolized	Compound NOT metabolized	Compound NOT metabolized	Compound NOT metabolized	Compound NOT metabolized	Compound NOT metabolized	Compound NOT metabolized	Compound NOT metabolized	Compound NOT metabolized	Compound NOT metabolized	Compound NOT metabolized	Compound NOT metabolized	Compound NOT metabolized	Compound metabolized	Compound metabolized	Compound NOT metabolized	Compound metabolized	Compound NOT metabolized	Compound NOT metabolized	C=CC[C@@H]1/C=C(\C)C[C@H](C)C[C@H](OC)[C@H]2O[C@@](O)(C(=O)C(=O)N3CCCC[C@H]3C(=O)O[C@H](/C(C)=C/[C@@H]3CC[C@@H](O)[C@H](OC)C3)[C@H](C)[C@@H](O)CC1=O)[C@H](C)C[C@@H]2OC.O [TACROLIMUS]	Compound NOT metabolized	Bacterial Biotransformation [21]: Compound metabolized; Bacterial Biotransformation [22]: Compound metabolized; Bacterial Biotransformation [23]: Compound metabolized; Bacterial Biotransformation [24]: Compound metabolized; Bacterial Biotransformation [25]: Compound NOT metabolized; Bacterial Biotransformation [26]: Compound NOT metabolized; Bacterial Biotransformation [27]: Compound NOT metabolized; Bacterial Biotransformation [28]: Compound metabolized; Bacterial Biotransformation [29]: Compound metabolized; Bacterial Biotransformation [30]: Compound metabolized; Bacterial Biotransformation [31]: Compound metabolized
